# Columns and labels:
# Assay type in all cases: functional, cell-based
# FaDu [1] = assay: Cytotoxic activity against human FADU bulk cells incubated for 72 hrs by Cell-titer-Glo luminescence assay
# FaDu [2] = assay: Cytotoxic activity against human FADU cancer stem cells incubated for 72 hrs by Cell-titer-Glo luminescence assay
# ACHN = assay: Cytotoxic activity against human ACHN bulk cells incubated for 72 hrs by Cell-titer-Glo luminescence assay
# A549 = assay: Cytotoxic activity against human A549 bulk cells incubated for 72 hrs by Cell-titer-Glo luminescence assay; details: A549, 72 h
SMILES,IC50 (FaDu [1]) [µM],IC50 (FaDu [2]) [µM],IC50 (ACHN) [µM],IC50 (A549) [µM]
CCN(CC)CCNC(=O)c1c(C)[nH]c(/C=C2\C(=O)Nc3ccc(-c4ccc(-c5cccnc5)s4)cc32)c1C,14.3,40.8,–,–
Cc1[nH]c(/C=C2\C(=O)Nc3ccc(-c4csc(C5CCNCC5)n4)cc32)c(C)c1C(=O)O,–,5.62,–,–
Cc1cc(C)c(/C=C2\C(=O)Nc3ccc(-c4ccc5ccccc5n4)cc32)[nH]1,–,–,7.44,–
COC(=O)c1c(C)[nH]c(/C=C2\C(=O)Nc3ccc(-c4csc(-c5ccccc5)n4)cc32)c1C,21.8,–,1.16,16.3
Cc1cc(C)c(/C=C2\C(=O)Nc3cc(-c4ccc(-c5ccccc5)nc4)ccc32)[nH]1,–,18.2,–,–
Cc1[nH]c(/C=C2\C(=O)Nc3ccc(-c4cnn(-c5ccccc5)c4C)cc32)c(C)c1C(=O)N1CCN(C)CC1,–,14.8,–,–
O=C1Nc2ccc(-c3csc(-c4ccccc4)n3)cc2/C1=C/c1cc2ccccc2[nH]1,49.3,–,–,–
CCN(CC)CCNC(=O)c1c(C)[nH]c(/C=C2\C(=O)Nc3ccc(C4CCN(c5ncccn5)CC4)cc32)c1C,6.47,18.8,–,–
Cc1[nH]c(/C=C2\C(=O)Nc3ccc(-c4cnn(-c5ccccc5)c4C)cc32)c(C)c1C(=O)NCCN1CCCC1,5.79,1.31,–,–
O=C1Nc2ccc(-c3csc(-c4ccccc4)n3)cc2/C1=C/c1ccc(N2CCOCC2)cc1,35.5,–,–,–
CCN(CC)CCN1CCCc2[nH]c(/C=C3\C(=O)Nc4ccc(-c5csc(-c6ccccc6)n5)cc43)c(C)c2C1=O,5.31,–,–,18
Cc1cc(C)c(/C=C2\C(=O)Nc3ccc(-c4nccc5ccccc45)cc32)[nH]1,23.5,–,–,18.4
O=C1Nc2ccc(-c3csc(-c4ccncc4)n3)cc2/C1=C/c1ccc(N2CCNCC2)cc1,25.2,–,–,8.73
O=C1Nc2ccc(-c3csc(-c4ccccc4)n3)cc2/C1=C/c1ccc(N2CCNCC2)cc1,2.59,–,–,5.79
CCN(CC)CCNC(=O)c1c(C)[nH]c(/C=C2\C(=O)Nc3ccc(-c4csc(-c5ccccn5)n4)cc32)c1C,46.9,–,–,–
Cc1[nH]c(/C=C2\C(=O)Nc3ccc(-c4cnn(-c5ccccc5)c4C)cc32)c(C)c1C(=O)N1CCOCC1,6.76,37.2,–,–
Cc1cc(C)c(/C=C2\C(=O)Nc3cc(-c4cnc5ccnn5c4)ccc32)[nH]1,–,14.9,–,–
Cc1cc(C)c(/C=C2\C(=O)Nc3ccc(-c4csc(-c5ccccc5)n4)cc32)[nH]1,7.87,6.49,5.31,–
CN1CCN(C(=O)c2ccc(/C=C3\C(=O)Nc4ccc(-c5csc(-c6ccccc6)n5)cc43)[nH]c2=O)CC1,–,23.2,–,–
CCN(CC)CCNC(=O)c1c(C)[nH]c(/C=C2\C(=O)Nc3ccc(-c4cnc(-c5ccccc5)o4)cc32)c1C,9.73,41.5,12.2,–
CCN(CC)CCNC(=O)c1c(C)[nH]c(/C=C2\C(=O)Nc3ccc(-c4cnc(-c5ccccc5)s4)cc32)c1C,23.7,–,–,–

SMILES,IC50 (FaDu [1]) [µM],IC50 (FaDu [2]) [µM],IC50 (ACHN) [µM],IC50 (A549) [µM]
CCN(CC)CCNC(=O)c1c(C)[nH]c(/C=C2\C(=O)Nc3ccc(-c4oc(-c5ccccc5)nc4C)cc32)c1C,–,18.2,–,–
Cc1cc(C)c(/C=C2\C(=O)Nc3cc(-c4cnc5ccccn45)ccc32)[nH]1,19.4,–,20.6,–
CCN(CC)CCNC(=O)c1c(C)[nH]c(/C=C2\C(=O)Nc3ccc(-c4ccnn4-c4ccc(C#N)cc4)cc32)c1C,17.3,4.96,–,–
CCN(CC)CCNC(=O)c1c(C)[nH]c(/C=C2\C(=O)Nc3ccc(-c4cnc(-c5ccccc5)[nH]4)cc32)c1C,5.34,–,20.6,–
O=C1Nc2ccc(-c3csc(-c4ccncc4)n3)cc2/C1=C/c1cc2ccccc2[nH]1,–,3.07,–,–
Cc1cc(C)c(/C=C2\C(=O)Nc3cc(-c4ccc5ccccc5n4)ccc32)[nH]1,14,–,–,–
CCN(CC)CCNC(=O)c1c(C)[nH]c(/C=C2\C(=O)Nc3ccc(C4CCN(C5CCOCC5)CC4)cc32)c1C,23.9,–,–,–
COc1ccc(-c2ccc3c(c2)/C(=C/c2[nH]c(C)cc2C)C(=O)N3)c(C)c1,19.8,–,24.8,–
CC(=O)N1CCC(N2CCC(c3ccc4c(c3)/C(=C/c3[nH]c(C)c(C(=O)N5CCN(C)CC5)c3C)C(=O)N4)CC2)CC1,23.2,15.6,–,–
CCOC(=O)CCc1cccc(-c2nc(-c3ccc4c(c3)/C(=C/c3[nH]c(C)c(C(=O)NCCN(CC)CC)c3C)C(=O)N4)cs2)c1,–,2.34,–,–
O=C1Nc2ccc(-c3csc(-c4ccccc4)n3)cc2/C1=C/c1ccc(C(=O)NCCN2CCOCC2)c(=O)[nH]1,–,33.7,–,–
COc1ccc(-c2ccc3c(c2)/C(=C/c2[nH]c(C)cc2C)C(=O)N3)nc1,–,–,–,0.07
Cc1[nH]c(/C=C2\C(=O)Nc3ccc(-c4cnc(-c5ccccc5)o4)cc32)c(C)c1C(=O)N1CCN(C)CC1,12.1,9.35,–,–
Cc1cc(C)c(/C=C2\C(=O)Nc3ccc(-c4cncnc4)cc32)[nH]1,–,–,12.8,20.8
CCN(CC)CCNC(=O)c1c(C)[nH]c(/C=C2\C(=O)Nc3ccc(-c4nnc(-c5ccccc5)s4)cc32)c1C,2.15,0.23,–,48.9
Cc1[nH]c(/C=C2\C(=O)Nc3ccc(-c4cnc(-c5ccccc5)[nH]4)cc32)c(C)c1C(=O)N1CCN(C)CC1,5.54,13.2,–,–
O=C1Nc2ccc(-c3csc(-c4ccncc4)n3)cc2/C1=C/c1ccc(N2CCOCC2)cc1,17.5,–,–,–
CCOC(=O)c1c(C)[nH]c(/C=C2\C(=O)Nc3ccc(-c4csc(-c5ccccc5)n4)cc32)c1C,–,20.2,–,–
CCN(CC)CCNC(=O)c1c(C)[nH]c(/C=C2\C(=O)Nc3ccc(-c4csc(-c5ccc(Br)cc5)n4)cc32)c1C,3.68,1.33,–,–
Cc1[nH]c(/C=C2\C(=O)Nc3ncc(-c4csc(-c5ccccc5)n4)cc32)c(C)c1C(=O)N1CCN(C)CC1,39.2,–,–,–
CCN(CC)CCNC(=O)c1c(C)[nH]c(/C=C2\C(=O)Nc3ccc(-c4cs/c(=N\c5ccccc5)n4C)cc32)c1C,5.35,2.17,–,–

SMILES,IC50 (FaDu [1]) [µM],IC50 (FaDu [2]) [µM],IC50 (ACHN) [µM],IC50 (A549) [µM]
Cc1[nH]c(/C=C2\C(=O)Nc3ccc(-c4csc(-c5ccncc5)n4)cc32)c(C)c1CCC(=O)O,–,–,14.6,–
CCN(CC)CCNC(=O)c1c(C)[nH]c(/C=C2\C(=O)Nc3ccc(-c4csc(-c5cccc(Br)c5)n4)cc32)c1C,24.8,7.82,–,–
Cc1[nH]c(/C=C2\C(=O)Nc3ccc(-c4ccnn4-c4ccc(C#N)cc4)cc32)c(C)c1C(=O)N1CCN(C)CC1,–,48.2,–,–
Cc1[nH]c(/C=C2\C(=O)Nc3ccc(-c4cnn(-c5ccccn5)c4)cc32)c(C)c1C(=O)N1CCOCC1,–,8.94,–,–
CCN(CC)CCNC(=O)c1[nH]c(/C=C2\C(=O)Nc3ccc(-c4csc(-c5ccccc5)n4)cc32)c2c1CCCC2,–,–,9.91,–
O=C1Nc2ccc(-c3csc(-c4ccccc4)n3)cc2/C1=C/c1[nH]c(C(=O)O)c2c1CCCC2,–,4.49,24.9,–
Cc1ccc(-c2nc(-c3ccc4c(c3)/C(=C/c3[nH]c(C)c(C(=O)N5CCOCC5)c3C)C(=O)N4)cs2)cc1,3.05,–,–,–
CCN(CC)CCNC(=O)c1c(C)[nH]c(/C=C2\C(=O)Nc3ncc(-c4csc(-c5ccccc5)n4)cc32)c1C,–,1.6,–,–
CCN(CC)CCNC(=O)c1c(C)[nH]c(/C=C2\C(=O)Nc3cnc(-c4csc(-c5ccccc5)n4)cc32)c1C,11.2,4.75,–,–
Cc1cc(C)c(/C=C2\C(=O)Nc3ccc(-c4ccc(C(=O)c5ccccc5)cc4)cc32)[nH]1,22.4,–,21.8,–
CCN(CC)CCNC(=O)c1c(C)[nH]c(/C=C2\C(=O)Nc3ccc(-c4nc(-c5ccccc5)n[nH]4)cc32)c1C,6.16,2.8,–,–
Cc1[nH]c(/C=C2\C(=O)Nc3ccc(-c4ncc(-c5ccccc5)o4)cc32)c(C)c1C(=O)N1CCN(C)CC1,–,2.38,–,–
Cc1[nH]c(/C=C2\C(=O)Nc3ccc(-c4ccc(-c5ccccc5)s4)cc32)c(C)c1C(=O)NCCN1CCCC1,4.44,1.64,–,–
CCN(CC)CCNC(=O)c1c(C)[nH]c(/C=C2\C(=O)Nc3ccc(-n4cc(-c5ccccc5)nn4)cc32)c1C,6.58,3,7.16,–
Cc1cc(C)c(/C=C2\C(=O)Nc3cc(-c4cccc(C#N)c4C)ccc32)[nH]1,–,39.1,–,–
CCN(CC)CCNC(=O)c1c(C)[nH]c(/C=C2\C(=O)Nc3ccc(C4CCN(c5ccccc5)CC4)cc32)c1C,1.89,1.3,–,16
CCN(CC)CCNC(=O)c1c(C)[nH]c(/C=C2\C(=O)Nc3ccc(-c4nnc(-c5ccccc5)o4)cc32)c1C,8.23,21.5,–,–
CCN(CC)CCNC(=O)c1c(C)[nH]c(/C=C2\C(=O)Nc3cc(-c4ccc5cc[nH]c(=O)c5c4)ccc32)c1C,23.9,–,–,–
Cc1[nH]c(/C=C2\C(=O)Nc3ccc(-c4ccnn4-c4ccccc4)cc32)c(C)c1C(=O)N1CCN(C)CC1,4.55,11.5,–,–
COc1cccnc1-c1ccc2c(c1)/C(=C/c1[nH]c(C)cc1C)C(=O)N2,33.2,–,–,–
